Assays:
[1] = Crystal form transformation (polymorphic transition); type: physicochemical; settings: for crystal form transformation: in solvents such as ethanol
[2] = High-temperature stability test; type: physicochemical; settings: for Outward: colour
Method: (§1) • (1) High-Temperature Test: Place an appropriate amount of the test sample in a flat weighing bottle, spreading it into a thin layer ≤5 mm thick. Store at 60°C ± 2°C for 30 days. Collect samples at 0, 5, 10, and 30 days for analysis according to the key stability test items. Observe any color changes and determine purity by HPLC. • (2) High-Humidity Test: Place an appropriate amount of the test sample from one batch in a flat weighing bottle, spreading it into a thin layer ≤5 mm thick. Store at 25°C and 90% ± 5% relative humidity (RH) for 30 days. Collect samples at 0, 5, 10, and 30 days for analysis according to the key stability test items. Observe any color changes and determine purity by HPLC. • (3) Light-Exposure Test: Expose the sample to visible light (4500 lx ± 500 lx) and UV light (energy ≥0.7 W·h/m^2) for 30 days. Collect samples at 0, 5, 10, 15, and 30 days for analysis according to the key stability test items. Observe any color changes and determine purity by HPLC. • (4) Accelerated Test: Package an appropriate amount of the test sample from one batch in single-layer PE with aluminum foil. Store at 40°C ± 2°C / 75% ± 5% RH for […]. Collect samples at 0, 1, 2, 3, and 6 months for analysis according to the key stability test items. Observe any color changes and determine purity by HPLC.

[3] = Solubility test (HPLC); type: physicochemical; settings: figures not given
Method: The solubility of the present invention was determined using an Agilent 1200 High Performance Liquid Chromatograph DAD/VWD detector with an Agilent XDB-C18 model (4.6 x 50 mm, 5 µm). Detection wavelength of 266 nm, flow rate of 1.0 mL/min, the column temperature of 35 °C, mobile phase A: acetonitrile - 0.01 M ammonium acetate = 10:90 (V: V) analysis methods: acetonitrile - mobile phase A= 70:30 (V: V), running time: 10 minutes.

[4] = Hygroscopicity test by dynamic vapor sorption (DVS); type: physicochemical
Method: The hygroscopicity of the present invention was determined using a DVS INT-Std dynamic vapor and gas sorption analyzer from Surface Measurement Systems Ltd. (UK) with the following parameters: humidity test range: 0%-95%, gas flow: 200 mL/min, temperature: 25°C, test points: one measurement point every 5% humidity increase.
An appropriate amount of the test sample was taken, and its hygroscopicity was measured using a dynamic vapor sorption (DVS) instrument. The classification criteria for hygroscopicity characteristics and moisture absorption weight gain (as per Appendix 9103 "Guidelines for Hygroscopicity Testing of Drugs" from the Chinese Pharmacopoeia 2020 Edition, test conditions: 25°C ± 1°C, 80% ± 2% relative humidity (RH)) are described in Table 3 below: Table 3 The description of the hygroscopicity feature and the definition of the hygroscopicity gain

[5] = Pharmacokinetics test, oral capsules; type: in vivo; settings: male Beagle dogs, 5 mg/kg, figures not given
Method: Male Beagle dogs of 8-12 kg were divided into 3 groups, 3 dogs in each group, and capsules containing test samples were orally administered at a dose of 5 mg/kg, and blood was collected at time points of 0.25, 0.5, 1.0, 2.0, 4.0, 6.0, 8.0 and 24 h. Standard curve was plotted based on concentrations of the samples in a suitable range, the concentration of the test sample in the plasma sample was measured and quantified by AB SCIEX API4000-type LC-MS / MS at MRM mode. Pharmacokinetic parameters were calculated according to drug concentration -time curve using a noncompartmental method by WinNonLin 6.3 software.

[6] = High-humidity stability test; type: physicochemical; settings: 25°C, 90% ± 5% RH, 30 day; for Outward: colour
Method: as §1

[7] = Light-exposure stability test; type: physicochemical; settings: 30 day; for Outward: colour
Method: as §1

[8] = Accelerated stability test; type: physicochemical; settings: 40°C ± 2°C / 75% ± 5% RH, 6 month
[9] = Accelerated stability test; type: physicochemical; settings: 40°C ± 2°C / 75% ± 5% RH; for Outward: colour
Method: as §1

[10] = 0 day, common start value of the high-temperature, high-humidity and light-exposure tests, HPLC
[11] = 0 day, common start value of the three tests
[12] = High-Temperature, 60°C ± 2°C, 30 day

With `COC(=O)Nc1c(N)nc(-c2nn(Cc3ccccc3F)c3c(F)cccc23)nc1N` [Crystal Form I, methyl (4,6-diamino-2-(7-fluoro-1-(2-fluorobenzyl)-1H-indazol-3-yl)pyrimidin-5-yl)carbamate] the crystal form transformation [1] was “transform into Crystal form II”.
For `COC(=O)Nc1c(N)nc(-c2nn(Cc3ccccc3F)c3c(F)cccc23)nc1N` [Crystal Form II, methyl (4,6-diamino-2-(7-fluoro-1-(2-fluorobenzyl)-1H-indazol-3-yl)pyrimidin-5-yl)carbamate], the “Purity (%)” value [2, 10] was 99.97%, the Outward [2, 11] was “Off-white” and the Outward [2, 12] was “Off-white”. The stability ([2]; conclusion over various storage conditions (high-temperature, high-humidity, light-exposure and accelerated tests)) was “excellent stability”, the remaining at 720 h ([2]; solid storage, High-Temperature, 60°C ± 2°C, 30 day, HPLC, read-out: Purity (%)) was 99.9% and the “stability of the crystal structure” value ([1]; in contrast to the other crystal forms) was “less prone to polymorphic transition”. For the same compound, the solubility [3] was “good solubility”, the “Weight Gain at 60% RH (%)” value ([4]; DVS, 25°C, 60% RH) was 0.02% and the “Weight Gain at 80% RH (%)” value ([4]; DVS, 25°C, 80% RH) was 0.05%. The “Weight Gain at 95% RH (%)” value ([4]; DVS, 25°C, 95% RH) was 0.18%, the the hygroscopicity feature ([4]; classification per Chinese Pharmacopoeia 2020, 25°C ± 1°C, 80% ± 2% RH) was “no or negligible hygroscopicity” and the deliquescence ([4]; under high humidity conditions) was “not prone to deliquescence”. For the same compound, the pharmacokinetic properties [5] was “excellent pharmacokinetic properties”, the Outward [6] was “Off-white” and the remaining at 720 h ([6]; solid storage, 90% rh, HPLC, read-out: Purity (%)) was 100%. The Outward [7] was “Pale yellow”, the remaining at 720 h ([7]; solid storage, light exposure, visible light 4500 lx ± 500 lx and UV light, HPLC, read-out: Purity (%)) was 99.9% and the Outward ([8]; colour) was “Off-white”. The remaining at 4320 h ([8]; solid storage, 75% rh, read-out: Purity (%)) was 99.9%, the “Purity (%)” value ([9]; 0 day) was 99.96% and the Outward ([9]; 0 day) was “Off-white”. For the same compound, the Outward ([9]; 1 month) was “Off-white”, the Outward ([9]; 2 month) was “Off-white” and the Outward ([9]; 3 month) was “Off-white”. The remaining at 720 h ([9]; solid storage, 75% rh, 1 month, read-out: Purity (%)) was 100%, the remaining at 1440 h ([9]; solid storage, 75% rh, 2 month, read-out: Purity (%)) was 100% and the remaining at 2160 h ([9]; solid storage, 75% rh, 3 month, read-out: Purity (%)) was 100%.
In the case of `COC(=O)Nc1c(N)nc(-c2nn(Cc3ccccc3F)c3c(F)cccc23)nc1N` [Crystal Form V, methyl (4,6-diamino-2-(7-fluoro-1-(2-fluorobenzyl)-1H-indazol-3-yl)pyrimidin-5-yl)carbamate], the “Purity (%)” value [2, 10] is reported as 99.52%, the Outward [2, 11] is reported as “Off-white” and the “Purity (%)” value ([2]; High-Temperature, 60°C ± 2°C, 30 day, HPLC, 43200 min) is reported as 99.47%. For the same compound, the Outward [2, 12] was “Off-white”, the crystal form transformation [1] was “transform into Crystal form II” and the polymorphic transition ([1]; under high temperature conditions) was “undergoes polymorphic transition”. For the same compound, the “Purity (%)” value ([6]; HPLC, 43200 min) was 99.51%, the Outward [6] was “Off-white” and the Outward [7] was “Pale yellow”. The “Purity (%)” value ([7]; visible light 4500 lx ± 500 lx and UV light, HPLC, 43200 min) was 99.36%.

From patent EP4640676A1, “CRYSTAL FORM OF FLUORINE-SUBSTITUTED INDAZOLE COMPOUND AND USE THEREOF” (Sunshine Lake Pharma Co., Ltd., priority 2022, dated 2024)
